Source: PubChem BioAssay (NCI)
“And” between values parts separate entries of the source, which are not always exact repeats. Equal values may be shown once.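 The compound was tested at five concentrations on cells cultured in 96-well plates, with a 48-hour exposure period. GI50 = concentration required for 50% inhibition of growth. Definition used: TGI = concentration required for complete inhibition of growth.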

Legend:
Experiment in all cases: NCI tumour cell line growth inhibition, 48 h
M19-MEL melanoma = system: M19-MEL melanoma
ACHN renal = system: ACHN renal
MALME-3M melanoma = system: MALME-3M melanoma
DU-145 prostate = system: DU-145 prostate
SW-620 colon = system: SW-620 colon
MCF7 breast = system: MCF7 breast
SF-268 CNS = system: SF-268 CNS
SK-MEL-28 melanoma = system: SK-MEL-28 melanoma
HCT-116 colon = system: HCT-116 colon
SF-539 CNS = system: SF-539 CNS
LXFL 529 NSCLC = system: LXFL 529 NSCLC
DMS 273 small cell lung = system: DMS 273 small cell lung
SNB-19 CNS = system: SNB-19 CNS
HCT-15 colon = system: HCT-15 colon
MDA-MB-435 = system: MDA-MB-435
HS 578T breast = system: HS 578T breast
NCI-H226 lung = system: NCI-H226 lung
HOP-62 NSCLC = system: HOP-62 NSCLC
SR leukemia = system: SR leukemia
BT-549 breast = system: BT-549 breast
UO-31 renal = system: UO-31 renal
COLO 205 colon = system: COLO 205 colon
A498 renal = system: A498 renal
RPMI-8226 leukemia = system: RPMI-8226 leukemia
M14 melanoma = system: M14 melanoma
HL-60(TB) leukemia = system: HL-60(TB) leukemia
T-47D breast = system: T-47D breast
HCC-2998 colon = system: HCC-2998 colon
DLD-1 colon = system: DLD-1 colon
HOP-92 NSCLC = system: HOP-92 NSCLC
OVCAR-4 ovarian = system: OVCAR-4 ovarian
SK-OV-3 ovarian = system: SK-OV-3 ovarian
A549 NSCLC = system: A549 NSCLC
NCI-H23 lung = system: NCI-H23 lung
SN12C renal = system: SN12C renal
CAKI-1 renal = system: CAKI-1 renal
NCI/ADR-RES ovarian = system: NCI/ADR-RES ovarian
MDA-MB-231 breast = system: MDA-MB-231 breast
EKVX NSCLC = system: EKVX NSCLC
RXF 393 renal = system: RXF 393 renal
KM12 colon = system: KM12 colon
SK-MEL-2 melanoma = system: SK-MEL-2 melanoma
SK-MEL-5 melanoma = system: SK-MEL-5 melanoma
NCI-H460 lung = system: NCI-H460 lung
MOLT-4 leukemia = system: MOLT-4 leukemia
MDA-N = system: MDA-N
NCI-H522 lung = system: NCI-H522 lung
SN12K1 renal = system: SN12K1 renal
786-0 renal = system: 786-0 renal
SNB-78 CNS = system: SNB-78 CNS
CCRF-CEM leukemia = system: CCRF-CEM leukemia
TK-10 renal = system: TK-10 renal
HOP-18 NSCLC = system: HOP-18 NSCLC
PC-3 prostate = system: PC-3 prostate
K-562 leukemia = system: K-562 leukemia
P388 leukemia = system: P388 leukemia
OVCAR-3 ovarian = system: OVCAR-3 ovarian
P388/ADR leukemia = system: P388/ADR leukemia
LOX IMVI melanoma = system: LOX IMVI melanoma

Which TGI (M19-MEL melanoma) does the source give for `COc1cccc2c1C(=O)c1c(O)c3c(c(O)c1C2=O)C[C@@](O)(C(C)=O)C[C@@H]3OC1CC(O)C(O)C(C)O1` (stereo partly specified) here?
Its TGI is 9.24 µM and 6.19 µM.

And the GI50 (ACHN renal)?
Its GI50 is 0.397 µM.

And the TGI (ACHN renal)?
Its TGI is 2.41 µM and 2.85 µM.

And the TGI (MALME-3M melanoma)?
Its TGI is 6.66 µM and 5.96 µM.

What about the TGI (DU-145 prostate) of the same compound?
Its TGI is 8.55 µM.

And the TGI (SW-620 colon)?
The TGI was 35.5 µM.

And the GI50 (MCF7 breast)?
Its GI50 is 0.153 µM.

And the TGI (MCF7 breast)?
Its TGI is > 94.4 µM.

What about the TGI (SF-268 CNS) of the same compound?
Its TGI is 9.38 µM and 12.8 µM.

What about the TGI (SK-MEL-28 melanoma) of the same compound?
Its TGI is 25 µM.

And the TGI (HCT-116 colon)?
The TGI was 3.54 µM and 3.82 µM.

And the TGI (SF-539 CNS)?
Its TGI is 9.15 µM and 10.2 µM.

And the GI50 (LXFL 529 NSCLC)?
The GI50 was 1.49 µM.

What about the TGI (LXFL 529 NSCLC) of the same compound?
The TGI was 15.3 µM.

And the TGI (DMS 273 small cell lung)?
The TGI was 7.84 µM and 3.46 µM.

And the TGI (SNB-19 CNS)?
Its TGI is 8.41 µM and 20.5 µM.

And the TGI (HCT-15 colon)?
The TGI was 9.84 µM and 14.6 µM.

And the TGI (MDA-MB-435)?
The TGI was 27.7 µM.

What about the TGI (HS 578T breast) of the same compound?
Its TGI is 6.93 µM.

What about the TGI (NCI-H226 lung) of the same compound?
The TGI was 4.77 µM and 1.58 µM.

And the TGI (HOP-62 NSCLC)?
Its TGI is 7.09 µM and 1.78 µM.

What about the GI50 (SR leukemia) of the same compound?
Its GI50 is 0.089 µM and 0.0887 µM.

And the TGI (SR leukemia)?
Its TGI is 0.451 µM and 0.497 µM.

And the TGI (BT-549 breast)?
The TGI was 20.1 µM.

What about the TGI (UO-31 renal) of the same compound?
The TGI was 10 µM.

What about the TGI (COLO 205 colon) of the same compound?
The TGI was 27 µM.

And the TGI (A498 renal)?
The TGI was 9.01 µM.

And the TGI (RPMI-8226 leukemia)?
Its TGI is 5.5 µM and 8.53 µM.

And the GI50 (M14 melanoma)?
Its GI50 is 2.7 µM.

What about the TGI (M14 melanoma) of the same compound?
Its TGI is 18 µM.

What about the TGI (HL-60(TB) leukemia) of the same compound?
The TGI was 1.94 µM and 1.2 µM.

What about the TGI (T-47D breast) of the same compound?
Its TGI is 36.9 µM.

And the TGI (HCC-2998 colon)?
The TGI was 12.8 µM.

What about the TGI (DLD-1 colon) of the same compound?
The TGI was 15.9 µM.

What about the TGI (HOP-92 NSCLC) of the same compound?
The TGI was 9.67 µM and 18.8 µM.

And the TGI (OVCAR-4 ovarian)?
Its TGI is 9.94 µM and 16.9 µM.

And the TGI (SK-OV-3 ovarian)?
The TGI was 8.99 µM and 42.6 µM.

What about the TGI (A549 NSCLC) of the same compound?
Its TGI is 6.31 µM and 10.4 µM.

What about the TGI (NCI-H23 lung) of the same compound?
Its TGI is 6.17 µM and 4.32 µM.

What about the TGI (SN12C renal) of the same compound?
The TGI was 8.75 µM and 17.5 µM.

And the TGI (CAKI-1 renal)?
The TGI was 5.57 µM and 4.94 µM.

And the GI50 (NCI/ADR-RES ovarian)?
The GI50 was 0.000214 µM.

And the TGI (MDA-MB-231 breast)?
The TGI was > 100 µM.

And the TGI (EKVX NSCLC)?
Its TGI is 27.2 µM.

And the TGI (RXF 393 renal)?
Its TGI is 9.33 µM.

What about the TGI (KM12 colon) of the same compound?
The TGI was 9.61 µM and 12.2 µM.

What about the TGI (SK-MEL-2 melanoma) of the same compound?
The TGI was 9.44 µM and 15.2 µM.

And the TGI (SK-MEL-5 melanoma)?
The TGI was 5.06 µM and 2.78 µM.

And the TGI (NCI-H460 lung)?
Its TGI is 2.73 µM and 5.19 µM.

And the TGI (MOLT-4 leukemia)?
Its TGI is 0.523 µM and 0.137 µM.

What about the TGI (MDA-N) of the same compound?
The TGI was 21.4 µM.

What about the TGI (NCI-H522 lung) of the same compound?
The TGI was 9.44 µM and 7.38 µM.

And the GI50 (SN12K1 renal)?
The GI50 was 0.333 µM.

What about the TGI (SN12K1 renal) of the same compound?
Its TGI is 4.96 µM.

What about the TGI (786-0 renal) of the same compound?
The TGI was 8.12 µM and 19.4 µM.

What about the TGI (SNB-78 CNS) of the same compound?
Its TGI is 59.1 µM.

What about the TGI (CCRF-CEM leukemia) of the same compound?
Its TGI is 1.98 µM and 2.06 µM.

What about the TGI (TK-10 renal) of the same compound?
Its TGI is 81.3 µM.

And the TGI (HOP-18 NSCLC)?
Its TGI is 7.13 µM and 7.74 µM.

What about the TGI (PC-3 prostate) of the same compound?
The TGI was 31.9 µM.

And the TGI (K-562 leukemia)?
The TGI was 14.5 µM.

What about the GI50 (P388 leukemia) of the same compound?
Its GI50 is 0.013 µM.

What about the TGI (P388 leukemia) of the same compound?
Its TGI is 0.372 µM.

And the TGI (OVCAR-3 ovarian)?
The TGI was 23.6 µM.

And the TGI (P388/ADR leukemia)?
The TGI was 1.64 µM.

What about the TGI (LOX IMVI melanoma) of the same compound?
Its TGI is 3.77 µM and 2.6 µM.
